Data from patent US20140315933A1, “CHEMICAL COMPOUNDS” (Pfizer Limited, priority 2013, published 2014).

Target: T1, URAT-1 transporter (Homo sapiens, UniProt Q96S37)
T1 construct: expressed in transfected cells
Experiment: URAT-1 inhibitor activity: [14C]-uric acid uptake into CHO-URAT1(L)GFP#8 (CHO#8) cells, scintillation proximity
Format: cell-based
How it was run: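 Scintillation proximity read-out of 30 nM (final) [14C]-uric acid uptake over three hours at room temperature in chloride-free HEPES buffer pH 7.4. Compounds, 0–10 μM final with 0.25% DMSO, were added 15 minutes before substrate; cells were a clonal CHO line with human URAT1(L)-eGFP, preincubated 1 hour in chloride buffer.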

T1 sequence (Q96S37 with tags, fused parts or gaps): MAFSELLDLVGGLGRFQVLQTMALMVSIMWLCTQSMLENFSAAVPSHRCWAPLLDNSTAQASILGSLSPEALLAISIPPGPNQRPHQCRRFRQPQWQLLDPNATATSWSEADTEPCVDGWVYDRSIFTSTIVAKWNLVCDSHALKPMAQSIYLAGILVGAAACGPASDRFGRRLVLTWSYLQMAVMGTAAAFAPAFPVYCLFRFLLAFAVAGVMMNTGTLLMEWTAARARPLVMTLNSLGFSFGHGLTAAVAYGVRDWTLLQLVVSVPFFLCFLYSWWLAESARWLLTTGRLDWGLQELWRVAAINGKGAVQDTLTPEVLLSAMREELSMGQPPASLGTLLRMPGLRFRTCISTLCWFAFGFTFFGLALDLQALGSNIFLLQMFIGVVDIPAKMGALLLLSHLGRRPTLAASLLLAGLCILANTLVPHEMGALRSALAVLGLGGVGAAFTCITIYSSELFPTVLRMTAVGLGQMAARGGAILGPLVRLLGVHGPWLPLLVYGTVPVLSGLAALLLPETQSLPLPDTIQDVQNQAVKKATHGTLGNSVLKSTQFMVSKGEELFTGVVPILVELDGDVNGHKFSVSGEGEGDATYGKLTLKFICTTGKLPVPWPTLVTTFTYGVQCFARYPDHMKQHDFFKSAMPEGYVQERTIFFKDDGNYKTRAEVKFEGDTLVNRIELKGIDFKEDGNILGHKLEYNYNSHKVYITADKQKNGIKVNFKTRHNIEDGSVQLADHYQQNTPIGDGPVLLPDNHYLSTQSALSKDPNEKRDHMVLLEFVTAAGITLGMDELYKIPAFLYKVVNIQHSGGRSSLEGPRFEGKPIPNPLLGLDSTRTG

SMILES | IC50
N#Cc1cc(S(=O)(=O)Nc2ncc(F)s2)ccc1Oc1ccc(F)c(F)c1 [Example 248, 3-cyano-4-(3,4-difluorophenoxy)-N-(5-fluoro-1,3-thiazol-2-yl)benzenesulfonamide] | > 1200 nM
O=S(=O)(Nc1nncs1)c1ccc(Oc2ccc(F)c(F)c2)cc1Cl [Example 249, 2-chloro-4-(3,4-difluorophenoxy)-N-(1,3,4-thiadiazol-2-yl)benzenesulfonamide] | > 10000 nM
N#Cc1ccc(Oc2c(F)cc(S(=O)(=O)Nc3ncns3)cc2Br)cc1Cl [Example 250, 3-bromo-4-(3-chloro-4-cyanophenoxy)-5-fluoro-N-(1,2,4-thiadiazol-5-yl)benzenesulfonamide] | 1880 nM
CC(C)Oc1ncc(Oc2ccc(S(=O)(=O)Nc3nncs3)cc2C#N)cc1Cl [Example 333] | 7540 nM
N#Cc1cc(S(=O)(=O)Nc2nncs2)ccc1Oc1cnc(OC(F)F)c(Cl)c1 [Example 334] | 2030 nM
CC(Oc1ncc(Oc2ccc(S(=O)(=O)Nc3nncs3)cc2C#N)cc1Cl)C(F)(F)F (stereo not shown) [Example 335] | 3260 nM
N#Cc1cc(S(=O)(=O)Nc2nncs2)ccc1Oc1cnc(OC2CCC2)c(Cl)c1 [Example 336] | 3910 nM
COc1ncc(Oc2ccc(S(=O)(=O)Nc3nncs3)cc2C#N)cc1Cl [Example 338] | 797 nM
CC(C)(F)COc1ncc(Oc2ccc(S(=O)(=O)Nc3nncs3)cc2C#N)cc1Cl [Example 339] | > 10000 nM
N#Cc1cc(S(=O)(=O)Nc2nccs2)ccc1Oc1ccc(OC(F)(F)F)cc1Br [compound 164] | > 10000 nM
N#Cc1cc(S(=O)(=O)Nc2nccs2)ccc1Oc1ccc(C(F)(F)F)cc1Br [compound 166] | 2680 nM
N#Cc1cc(S(=O)(=O)Nc2nccs2)ccc1Oc1ccc(Br)cc1F [compound 170] | > 1260 nM
N#Cc1cc(S(=O)(=O)Nc2nccs2)ccc1Oc1ccc(Cl)nc1 [compound 172] | 917 nM
COc1ccc(Oc2ccc(S(=O)(=O)Nc3nccs3)cc2C#N)cn1 [compound 173] | > 3660 nM
N#Cc1cc(S(=O)(=O)Nc2nccs2)ccc1Oc1cccc(CCO)c1 [compound 175] | > 5440 nM
N#Cc1cc(S(=O)(=O)Nc2nccs2)ccc1Oc1ccccc1CCO [compound 176] | > 6000 nM
N#Cc1cc(S(=O)(=O)Nc2nccs2)ccc1Oc1cccc(Cl)c1C#N [compound 180] | 814 nM
N#Cc1cc(S(=O)(=O)Nc2nccs2)ccc1Oc1ccccc1Cl [compound 181] | 1220 nM

SMILES | IC50
N#Cc1cc(S(=O)(=O)Nc2nccs2)ccc1Oc1ccccc1Br [compound 182] | 1330 nM
N#Cc1cc(S(=O)(=O)Nc2nccs2)ccc1Oc1ccccc1F [compound 183] | > 6030 nM
N#Cc1cc(S(=O)(=O)Nc2nccs2)ccc1Oc1ccc(N)cc1 [compound 184] | > 6240 nM
N#Cc1cc(Oc2ccc(S(=O)(=O)Nc3ncc(Cl)s3)cc2C#N)ccc1F [compound 193] | 834 nM
N#Cc1cc(Oc2ccc(S(=O)(=O)Nc3ncns3)cc2F)ccc1F [compound 194] | > 7150 nM
O=S(=O)(Nc1ncns1)c1ccc(Oc2ccc(F)c(F)c2)c(F)c1 [compound 195] | 2240 nM
O=S(=O)(Nc1ncns1)c1cc(F)c(Oc2ccc(F)c(F)c2)cc1F [compound 196] | 1580 nM
O=S(=O)(Nc1ncns1)c1cc(F)c(Oc2ccc(F)c(F)c2)c(F)c1 [compound 198] | 2190 nM
N#Cc1cc(Oc2ccc(S(=O)(=O)Nc3nncs3)cc2C#N)ccc1F [compound 199] | > 6370 nM
Cc1cc(S(=O)(=O)Nc2nncs2)c(F)cc1Oc1ccc(F)c(F)c1 [compound 200] | > 10000 nM
O=S(=O)(Nc1ncns1)c1ccc(Oc2ccc(F)c(F)c2)c(Cl)c1 [compound 202] | 823 nM
N#Cc1cc(Oc2c(F)cc(S(=O)(=O)Nc3ncns3)cc2F)ccc1F [compound 205] | > 6810 nM
N#Cc1cc(Oc2ccc(S(=O)(=O)Nc3ncns3)cc2C#N)ccc1F [compound 206] | > 3320 nM
N#Cc1ccc(Oc2cc(F)c(S(=O)(=O)Nc3ncns3)cc2F)cc1Cl [compound 208, 4-(3-chloro-4-cyanophenoxy)-2,5-difluoro-N-(1,2,4-thiadiazol-5-yl)benzenesulfonamide] | 1790 nM
O=S(=O)(Nc1nncs1)c1cc(F)c(Oc2ccc(F)c(F)c2)cc1F [compound 209] | > 7250 nM
N#Cc1ccc(Oc2ccc(S(=O)(=O)Nc3ncns3)cc2Cl)cc1Cl [compound 210] | 1610 nM
Cc1cc(S(=O)(=O)Nc2ncns2)ccc1Oc1ccc(F)c(F)c1 [compound 211] | 1110 nM
N#Cc1cc(S(=O)(=O)Nc2ncns2)ccc1Oc1ccc(F)c(F)c1 [compound 212] | 782 nM

The next molecules have a lower IC50 than those just listed; values first:

IC50 | SMILES
112 nM | Cc1cc(Oc2ccc(S(=O)(=O)Nc3nncs3)cc2C#N)cc(C)c1C#N [Example 337, 3-cyano-4-(4-cyano-3,5-dimethylphenoxy)-N-(1,3,4-thiadiazol-2-yl)benzenesulfonamide]
484 nM | Cc1nnc(NS(=O)(=O)c2ccc(Oc3ccc(C#N)c(Cl)c3)c(C#N)c2)s1 [Example 340, 4-(3-chloro-4-cyanophenoxy)-3-cyano-N-(5-methyl-1,3,4-thiadiazol-2-yl)benzenesulfonamide]
9 nM | N#Cc1cc(S(=O)(=O)Nc2nncs2)ccc1Oc1ccc(CO)c(Cl)c1 [Example 341, 4-[3-chloro-4-(hydroxymethyl)phenoxy]-3-cyano-N-(1,3,4-thiadiazol-2-yl)benzenesulfonamide]
565 nM | N#Cc1cc(S(=O)(=O)Nc2nccs2)ccc1Oc1ccc(Cl)cc1OC(F)(F)F [compound 162]
681 nM | N#Cc1cc(S(=O)(=O)Nc2nccs2)ccc1Oc1ccc(Cl)cc1C(F)(F)F [compound 163]
505 nM | N#Cc1cc(S(=O)(=O)Nc2nccs2)ccc1Oc1ccc(I)cc1 [compound 165]
166 nM | N#Cc1cc(S(=O)(=O)Nc2nccs2)ccc1Oc1cccc(I)c1 [compound 167]
161 nM | N#Cc1cc(S(=O)(=O)Nc2nccs2)ccc1Oc1ccc(Br)c(F)c1 [compound 168]
73 nM | N#Cc1cc(S(=O)(=O)Nc2nccs2)ccc1Oc1ccc(Cl)c(I)c1 [compound 169]
671 nM | N#Cc1cc(S(=O)(=O)Nc2nccs2)ccc1Oc1ccc(Br)nc1 [compound 171]
237 nM | CC(C)c1cc(C#N)cc(Oc2ccc(S(=O)(=O)Nc3nccs3)cc2C#N)c1 [compound 174]
584 nM | N#Cc1cc(S(=O)(=O)Nc2nccs2)ccc1Oc1cccc(CO)c1 [compound 177]
645 nM | N#Cc1cc(S(=O)(=O)Nc2nccs2)ccc1Oc1ccc(I)cc1F [compound 178]
121 nM | CCc1cc(F)ccc1Oc1ccc(S(=O)(=O)Nc2nccs2)cc1C#N [compound 179]
225 nM | N#Cc1cc(S(=O)(=O)Nc2ncc(Cl)s2)ccc1Oc1ccc(F)c(F)c1 [compound 197, N-(5-chloro-1,3-thiazol-2-yl)-3-cyano-4-(3,4-difluorophenoxy)benzenesulfonamide]
651 nM | N#Cc1cc(S(=O)(=O)Nc2nncs2)ccc1Oc1ccc(F)c(F)c1 [compound 201]
387 nM | N#Cc1ccc(Oc2ccc(S(=O)(=O)Nc3nncs3)cc2Cl)cc1Cl [compound 203]
317 nM | O=S(=O)(Nc1nncs1)c1ccc(Oc2ccc(F)c(F)c2)c(Cl)c1 [compound 204]
747 nM | N#Cc1cc(Oc2ccc(S(=O)(=O)Nc3ncns3)cc2Cl)ccc1F [compound 207]
